In patent US20210244721A1, “SMALL MOLECULE ENTEROVIRUS INHIBITORS AND USES THEREOF” (priority 2020, published 2021):
Like-named read-outs stand apart in the source and are kept apart here.

Tests used:
[1] = tested on: EV-D68 US/KY/14-18953 virus; assay: CPE assay, EV-D68 US/KY/14-18953 in RD cells; assay type: cell-based, Enterovirus D68 (EV-D68); details: EV-D68 US/KY/14-18953, RD cells; for EC50: CPE assay
[2] = Cytotoxicity, neutral red method, RD cells; details: human, RD (rhabdomyosarcoma) cells
RD cells = assay: Cytotoxicity, neutral red method, RD cells; details: RD cells, neutral red method
EV-A71 Tainan/4643/98 = assay: CPE assay, EV-A71 Tainan in RD cells; assay type: cell-based; details: Enterovirus A, EVA71; EV-A71 Tainan, RD cells; read-out: EC50
EV-A71 US/AK/16-19516 = assay: CPE assay, EV-A71 US/AK in RD cells; assay type: cell-based; details: Enterovirus A, EVA71
CVB3 = assay: CPE assay, CVB3 in Vero C1008 cells; assay type: cell-based, coxsackievirus B3 (CVB3); details: Enterovirus B; CVB3, Vero C1008 cells; read-out: EC50
[3] = Enterovirus D, EVD68, RD, read-out: EC50

Row | Compound | EC50 [1, 3] | CC50 at 3 days [2] | SI = selectivity index (CC50/EC50) [1] | other results
1 | CN(C)CCOC(=O)c1cc(-c2ccccc2)nc2ccccc12 [Compound 6ab, 2-(dimethylamino)ethyl 2-phenylquinoline-4-carboxylate] | > 50 µM | 78.9 µM |  | 
2 | CNCCCNC(=O)c1cc(-c2ccccc2)nc2ccccc12 [Compound 6ac, N-[3-(methylamino)propyl]-2-phenylquinoline-4-carboxamide] | 8.9 µM | 93.6 µM | SI50 = 10.5 | 
3 | NCCCNC(=O)c1cc(-c2ccccc2)nc2ccccc12 [Compound 6ad, N-(3-aminopropyl)-2-phenylquinoline-4-carboxamide] | 7.2 µM | 168 µM | SI50 = 23.4 | 
4 | O=C(NCC1CNC1)c1cc(-c2ccccc2)nc2ccccc12 [Compound 6ag, N-[(azetidin-3-yl)methyl]-2-phenylquinoline-4-carboxamide] | 5.8 µM | 43.2 µM |  | 
5 | O=C(NCC1(O)CNC1)c1cc(-c2ccccc2)nc2ccccc12 [Compound 6ah, N-[(3-hydroxyazetidin-3-yl)methyl]-2-phenylquinoline-4-carboxamide] | 5.1 µM | 82.2 µM |  | 
6 | O=C(NCCC1CCCN1)c1cc(-c2ccccc2)nc2ccccc12 (stereo not shown) [Compound 6ai, 2-phenyl-N-[2-(pyrrolidin-2-yl)ethyl]quinoline-4-carboxamide] | 6 µM | 19.1 µM |  | 
7 | O=C(NC1CNC1)c1cc(-c2ccccc2)nc2ccccc12 [Compound 6aj, N-(azetidin-3-yl)-2-phenylquinoline-4-carboxamide] | 4.2 µM | 36.6 µM |  | 
8 | CN1CC(NC(=O)c2cc(-c3ccccc3)nc3ccccc23)C1 [Compound 6ak, N-(1-methylazetidin-3-yl)-2-phenylquinoline-4-carboxamide] | 2.9 µM | 46.8 µM |  | 
9 | CC1(CNC(=O)c2cc(-c3ccccc3)nc3ccccc23)CNC1 [Compound 6al, N-[(3-methylazetidin-3-yl)methyl]-2-phenylquinoline-4-carboxamide] | 6.9 µM | 49.5 µM |  | 
10 | O=C(NCC1CCCNC1)c1cc(-c2ccccc2)nc2ccccc12 (stereo not shown) [Compound 6am] | 7.1 µM | 30.1 µM | SI50 = 4.2 | 
11 | NCCNC(=O)c1cc(-c2ccccc2)nc2ccccc12 [Compound 6an, N-(2-aminoethyl)-2-phenylquinoline-4-carboxamide] | 1.2 µM | 44.9 µM | SI50 = 37.4 | 
12 | N=C(N)NCCNC(=O)c1cc(-c2ccccc2)nc2ccccc12 [Compound 6ao, N-(2-carbamimidamidoethyl)-2-phenylquinoline-4-carboxamide] | 3.3 µM | > 200 µM | SI50 >60.6 | 
13 | CC(CN)NC(=O)c1cc(-c2ccccc2)nc2ccccc12 (stereo not shown) [Compound 6ap, N-(1-aminopropan-2-yl)-2-phenylquinoline-4-carboxamide] | 1.2 µM | 89.1 µM | SI50 = 74.3 | 
14 | [2H]c1c([2H])c([2H])c(-c2cc(C(=O)NCCNC)c3ccccc3n2)c([2H])c1[2H] [Compound 6as, N-[2-(methylamino)ethyl]-2 [(2,3,4,5,6-^2H5)phenyl]quinoline-4-carboxamide] | 1.1 µM | 101 µM | SI50 = 91.6 | 
15 | [2H]c1c([2H])c([2H])c(-c2cc(C(=O)NCCN)c3ccccc3n2)c([2H])c1[2H] [Compound 6at, N-(2-aminoethyl)-2 [(2,3,4,5,6-^2H5)phenyl]quinoline-4-carboxamide] | 2.2 µM | 100 µM | SI50 = 45.6 | 
16 | [2H]c1c([2H])c([2H])c(-c2cc(C(=O)NCC3CNC3)c3ccccc3n2)c([2H])c1[2H] [Compound 6au, N-[(azetidin-3-yl)methyl]-2 [(2,3,4,5,6-^2H5)phenyl]quinoline-4-carboxamide] | 6.4 µM | 188 µM | SI50 = 29.5 | 
17 | O=C(NC1CNC1)c1cc(-c2ccc(F)cc2)nc2ccccc12 [Compound 6ay, N-(azetidin-3-yl)-2-(4-fluorophenyl)quinoline-4-carboxamide] | 1.1 µM | 46.7 µM | SI50 = 42.5 | 
18 | O=C(NCC1CNC1)c1cc(-c2ccc(F)cc2)nc2ccccc12 [Compound 6az, N-[(azetidin-3-yl)methyl]-2-(4-fluorophenyl)quinoline-4-carboxamide] | 1.2 µM | 50.6 µM | SI50 = 42.2 | 
19 | CN(C)CCNC(=O)c1cc(-c2c(F)cccc2F)nc2ccccc12 [Compound 6bb, 2-(2,6-difluorophenyl)-N-[2-(dimethylamino)ethyl]quinoline-4-carboxamide] | 12.1 µM | 93 µM | SI50 = 7.7 | 
20 | CN(C)CCNC(=O)c1cc(-c2c(F)cc(F)cc2F)nc2ccccc12 [Compound 6bc, N-[2-(dimethylamino)ethyl]-2-(2,4,6-trifluorophenyl)quinoline-4-carboxamide] | 3.6 µM | 39.2 µM | SI50 = 10.9 | 

Row | Compound | EC50 [1, 3] | CC50 at 3 days [2] | SI = selectivity index (CC50/EC50) [1] | other results
21 | CN(C)CCNC(=O)c1cc(-c2cc(F)c(F)c(F)c2)nc2ccccc12 [Compound 6bd, N-[2-(dimethylamino)ethyl]-2-(3,4,5-trifluorophenyl)quinoline-4-carboxamide] | > 300 µM | 38 µM |  | 
22 | CN(C)CCNC(=O)c1cc(-c2c(F)c(F)c(F)c(F)c2F)nc2ccccc12 [Compound 6be, N-[2-(dimethylamino)ethyl]-2-(2,3,4,5,6-pentafluorophenyl)quinoline-4-carboxamide] | 10.8 µM | 148 µM | SI50 = 13.7 | 
23 | CN1CC(NC(=O)c2cc(-c3cccs3)nc3ccccc23)C1 [Compound 6bh, N-(1-methylazetidin-3-yl)-2-(thiophen-2-yl)quinoline-4-carboxamide] | 1 µM | 42.6 µM | SI50 = 42.6 | 
24 | CC(CN)NC(=O)c1cc(-c2cccs2)nc2ccccc12 (stereo not shown) [Compound 6bm, N-(1-aminopropan-2-yl)-2-(thiophen-2-yl)quinoline-4-carboxamide] | 0.5 µM | 23.8 µM | SI50 = 47.6 | 
25 | O=C(NCC1CNC1)c1cc(-c2cccs2)nc2ccccc12 [Compound 6bn, N-[(azetidin-3-yl)methyl]-2-(thiophen-2-yl)quinoline-4-carboxamide] | 1.2 µM | 28.3 µM | SI50 = 23.6 | 
26 | NCCNC(=O)c1cc(-c2ccco2)nc2ccccc12 [Compound 6bp, N-(2-aminoethyl)-2-(furan-2-yl)quinoline-4-carboxamide] | 4.4 µM | 147 µM | SI50 = 33.4 | 
27 | O=C(NC1CNC1)c1cc(-c2ccco2)nc2ccccc12 [Compound 6bq, N-(azetidin-3-yl) 2-(furan-2-yl)quinoline-4-carboxamide] | 11.1 µM | 161 µM | SI50 = 14.5 | 
28 | O=C(NCC1CNC1)c1cc(-c2ccco2)nc2ccccc12 [Compound 6br, N-[(azetidin-3-yl)methyl]-2-(furan-2-yl)quinoline-4-carboxamide] | 11.5 µM | 170 µM | SI50 = 14.8 | 
29 | NCCNC(=O)c1cc(-c2ccco2)nc2c(Cl)cccc12 [Compound 6bs, N-(2-aminoethyl)-8-chloro-2-(furan-2-yl)quinoline-4-carboxamide] | 1 µM | 50.5 µM | SI50 = 50.5 | 
30 | NNC(=O)c1cc(-c2cccs2)nc2ccccc12 [Compound 12e, 2-(thiophen-2-yl)quinoline-4-carbohydrazide] |  |  | >8.4 | CC50 (RD cells): > 100 µM
31 | CNCCNC(=O)c1cc(-c2ccccc2)nc2ccccc12 [drawing 182] |  |  |  | EC50 (EV-A71 Tainan/4643/98): 7.8 µM; EC50 (EV-A71 US/AK/16-19516): > 10 µM; EC50 (CVB3): 1.1 µM
32 | CC(CN(C)C)NC(=O)c1cc(-c2ccccc2)nc2ccccc12 (stereo not shown) [drawing 183] |  |  |  | EC50 (EV-A71 Tainan/4643/98): 18.3 µM; EC50 (EV-A71 US/AK/16-19516): 11.7 µM; EC50 (CVB3): 2 µM
33 | CNCCNC(=O)c1cc(-c2ccc(F)cc2)nc2ccccc12 [drawing 186] |  |  |  | EC50 [1]: 0.2 µM; EC50 (EV-A71 Tainan/4643/98): 3.1 µM; EC50 (CVB3): 0.2 µM
34 | CN(C)CCNC(=O)c1cc(-c2ccc(F)cc2F)nc2ccccc12 [drawing 188] |  |  |  | EC50 (EV-A71 Tainan/4643/98): 7.9 µM; EC50 (EV-A71 US/AK/16-19516): > 10 µM; EC50 (CVB3): 0.4 µM
35 | CN(C)CCNC(=O)c1cc(-c2cccs2)nc2ccccc12 [drawing 189] |  |  |  | EC50 [1]: 0.04 µM; EC50 (EV-A71 Tainan/4643/98): 2.9 µM; EC50 (EV-A71 US/AK/16-19516): > 10 µM; EC50 (CVB3): 0.07 µM
36 | CC(CN(C)C)NC(=O)c1cc(-c2cccs2)nc2ccccc12 (stereo not shown) [drawing 190] |  |  |  | EC50 (EV-A71 Tainan/4643/98): 7.9 µM; EC50 (EV-A71 US/AK/16-19516): 8.8 µM; EC50 (CVB3): 0.4 µM
37 | CN1CCC(NC(=O)c2cc(-c3cccs3)nc3ccccc23)C1 (stereo not shown) [drawing 191] |  |  |  | EC50 (EV-A71 Tainan/4643/98): 6.3 µM; EC50 (EV-A71 US/AK/16-19516): 8 µM; EC50 (CVB3): 0.2 µM
38 | NCCNC(=O)c1cc(-c2cccs2)nc2ccccc12 [drawing 193] |  |  |  | EC50 (EV-A71 Tainan/4643/98): 38.3 µM; EC50 (EV-A71 US/AK/16-19516): > 30 µM; EC50 (CVB3): 0.6 µM
39 | CN(C)CCNC(=O)c1cc(-c2ccco2)nc2ccccc12 [drawing 194] |  |  |  | EC50 (EV-A71 Tainan/4643/98): 30.9 µM; EC50 (EV-A71 US/AK/16-19516): 20.9 µM; EC50 (CVB3): 1.2 µM
